Patent US6861391B1, “Trifluoromethyl-substituted spirocyclic ketoenols” (Bayer Aktiengesellschaft, priority 1999, dated 2005)

What was measured:
[1] = system: peach aphids (Myzus persicae); experiment: Myzus test (cabbage leaf dip); assay type: in vivo; conditions: cabbage leaves dipped
Experimental: Myzus test Solvent: 7 parts by weight of dimethylformamide Emulsifier: 1 part by weight of alkylaryl polyglycol ether To produce a suitable preparation of active compound, 1 part by weight of active compound is mixed with the stated amounts of solvent and emulsifier, and the concentrate is diluted with emulsifier-containing water to the desired concentration. Cabbage leaves (Brassica oleracea) which are heavily infested by peach aphids (Myzus persicae) are treated by being dipped into the preparation of active compound of the desired concentration. After the desired period of time, the kill in % is determined. 100% means that all aphids have been killed; 0% means that none of the aphids have been killed.

[2] = system: larvae of the mustard beetle (Phaedon cochleariae); experiment: Phaedon larvae test (cabbage leaf dip); assay type: in vivo; conditions: 100 ppm active compound, cabbage leaves dipped
Experimental: Phaedon larvae test Solvent: 7 parts by weight of dimethylformamide Emulsifier: 1 part by weight of alkylaryl polyglycol ether To produce a suitable preparation of active compound, 1 part by weight of active compound is mixed with the stated amounts of solvent and emulsifier, and the concentrate is diluted with emulsifier-containing water to the desired concentration. Cabbage leaves (Brassica oleracea) are treated by being dipped into the preparation of active compound of the desired concentration and are populated with larvae of the mustard beetle (Phaedon cochleariae) while the leaves are still moist. After the desired period of time, the kill in % is determined. 100% means that all beetle larvae have been killed; 0% means that none of the beetle larvae have been killed.

Meloidogyne incognita = experiment: Meloidogyne test (gall formation on lettuce roots); assay type: in vivo; conditions: 20 ppm active compound, nematicidal action by gall formation on lettuce
Experimental: Meloidogyne test Solvent: 7 parts by weight of dimethylformamide Emulsifier. 1 part by weight of alkylaryl polyglycol ether To produce a suitable preparation of active compound, 1 part by weight of active compound is mixed with the stated amounts of solvent and emulsifier, and the concentrate is diluted with water to the desired concentration. Vessels are filled with sand, solution of active compound, Meloidogyne incognita egg/larvae suspension and lettuce seeds. The lettuce seeds germinate and the plants develop. On the roots, galls develop. After the desired period of time, the nematicidal action is determined in % by the formation of galls. 100% means that no galls have been found; 0% means that the number of galls on the treated plants corresponds to that of the untreated control.

Myzus persicae = experiment: Critical concentration test/root-systemic action; assay type: in vivo; conditions: 1.25 ppm in soil; root-systemic, broad beans; populated after 7 days, evaluated after a further 8 days
Experimental: Critical concentration test/root-systemic action Test insect: Myzus persicae Solvent: 4 parts by weight of acetone Emulsifier: 1 part by weight of alkylaryl polyglycol ether To produce a suitable preparation of active compound, 1 part by weight of active compound is mixed with the stated amount of solvent, the stated amount of emulsifier is added and the concentrate is diluted with water to the desired concentration. The preparation of active compound is mixed intimately with the soil. The concentration of the active compound in the preparation is virtually immaterial, only the amount by weight of active compound per volume unit of soil, which is stated in ppm […], being decisive. The treated soil is filled into 250 ml pots and pregerminated broad beans are planted in these. Thus, the active compound can be taken up by the plant roots from the soil and then transported into the leaves. To assess the root-systemic effect, the plants are populated with the above-mentioned test animals after 7 days. After a further 8 days, evaluation is carried out by counting or estimating the number of dead animals. The root-systemic action of the active compound is derived from the number of animals killed. It is 100% if all test animals have been killed and 0% when the number of test insects that are still alive is the same as for the untreated control.

| SMILES | melting point [°C] | Kill rate in % after 6 d ([1]; 1000 ppm active compound) [%] | other results |
| --- | --- | --- | --- |
| Cc1cc(Cl)cc(C)c1C1=C(O)C2(CCC(C(F)(F)F)CC2)NC1=O (stereo not shown) [Example I-1-a-6] | > 248 | – | – |
| Cc1cc(C)c(C2=C(O)C3(CCC(C(F)(F)F)CC3)NC2=O)c(C)c1C (stereo not shown) [Example I-1-a-5] | > 250 | – | Kill rate in % after 6 d ([1]; 100 ppm active compound): 100% |
| Cc1ccc(Br)c(C2=C(O)C3(CCC(C(F)(F)F)CC3)NC2=O)c1 (stereo not shown) [Example I-1-a-7] | 212 | – | – |
| CCOC(=O)OC1=C(c2c(C)cc(C)cc2C)C(=O)NC12CCC(C(F)(F)F)CC2 (stereo not shown) [Example I-1-c-1] | – | 100 | – |
| Cc1cc(C)c(C2=C(O)C3(CCC(C(F)(F)F)CC3)OC2=O)cc1C (stereo not shown) [Example I-2-a-2] | 212 to 214 | 100 | – |
| Cc1cc(C)c(C2=C(O)C3(CCC(C(F)(F)F)CC3)OC2=O)c(C)c1C (stereo not shown) [Example I-2-a-3] | 159 to 161 | – | – |
| Cc1cc(Cl)c(C2=C(O)C3(CCC(C(F)(F)F)CC3)NC2=O)c(Cl)c1 (stereo not shown) [Example I-1-a-4] | > 250 | – | – |
| Cc1cc(C)c(C2=C(O)C3(CCC(C(F)(F)F)CC3)NC2=O)cc1C (stereo not shown) [Example I-1-a-3] | 175 | 80 | – |
| Cc1ccc(C)c(C2=C(O)C3(CCC(C(F)(F)F)CC3)NC2=O)c1 (stereo not shown) [Example I-1-a-2] | 245 | – | – |
| Cc1cc(C)c(C2=C(OC(=O)C(C)C)C3(CCC(C(F)(F)F)CC3)NC2=O)c(C)c1 (stereo not shown) [Example I-1-b-1] | – | 95 | Kill rate in % after 7 d [2]: 100% |
| Cc1ccc(C)c(C2=C(O)C3(CCC(C(F)(F)F)CC3)OC2=O)c1 (stereo not shown) [Example I-2-a-1] | – | – | Kill rate in % after 7 d (Meloidogyne incognita): 90% |
| Cc1cc(C)c(C2=C(O)C3(CCC(C(F)(F)F)CC3)NC2=O)c(C)c1 (stereo not shown) [Example I-1-a-1] | – | – | Kill rate in % at active compound concentrations in ppm (Myzus persicae): 1.25 ppm = 100% |
